Values quoted from earlier work, collected in patent US20100241197A1, “METHODS OF USING NITROXIDES IN CONJUNCTION WITH PHOTOSENSITIZERS AND SONOSENSITIZERS” (Mitos Pharmaceuticals, Inc., priority 2003, published 2010).
Like-named read-outs stand apart in the source and are kept apart here. Each block holds one compound with its values, some of them ahead of it.

What was measured:
[1] = relative to PHOTOFRIN
tumor = details: in vivo
[2] = not given; remark: listed apart in the source

extinction coefficient (at 700 nm): 40 000 M-1 cm-1
Compound: CCOC(=O)C1=Cc2c3nc(cc4nc(cc5[n-]c(cc6[n-]c2c(C)c6CC)c(C)c5CC)C(C)=C4CC)[C@@H](C)[C@]13CC.[Cl-].[Cl-].[Sn] (racemic) [SnET2, tin etiopurpurin]

skin photosensitivity compared with PHOTOFRIN [1]: only slightly less
Compound: Oc1cccc(-c2c3nc(c(-c4cccc(O)c4)c4ccc([nH]4)c(-c4cccc(O)c4)c4nc(c(-c5cccc(O)c5)c5ccc2[nH]5)CC4)C=C3)c1 [m-THPC, Meta-tetra hydroxyphenyl chlorin]

extinction coefficient (absorbance peak at 650 nm): 34 000 M-1 cm-1
tumor accumulation (tumor): rapid tumor accumulation
Compound: benzoporphyrin derivative mono-acid A [BPD]

Compound: C=Cc1c(C)c2cc3nc(c(CC(=O)N[C@@H](CC(=O)[O-])C(=O)[O-])c4[nH]c(cc5nc(cc1[nH]2)C(C)=C5CC)c(C)c4C(=O)[O-])[C@@H](CCC(=O)[O-])[C@@H]3C.[Na+].[Na+].[Na+].[Na+] [Npe6, Mono-L-aspartyl chlorin e6]
extinction coefficient (absorbance peak at 654 nm): 40 000 M-1 cm-1
solubility in water / aqueous solutions [2]: highly water soluble
